# Results as given in patent US20040072825A1, “2-(2-(4-((2r)-2-methyl-3-(10h-phenothiazin-10-yl)propyl)-1-piperazinyl)-ethoxy) ethanol, process for the preparation thereof, pharmaceutical compositions containing said compound and therapeutic uses thereof” (priority 2000, published 2004).
# Assays:
# [1] = molecular target: T1, D4.4 dopaminergic receptor (Homo sapiens, UniProt P21917); assay: Radioligand binding, D4.4 receptor (CHO cell culture)
# T1 construct: expressed in transfected cells; host or cells: CHO
# T1 sequence (P21917 1-419): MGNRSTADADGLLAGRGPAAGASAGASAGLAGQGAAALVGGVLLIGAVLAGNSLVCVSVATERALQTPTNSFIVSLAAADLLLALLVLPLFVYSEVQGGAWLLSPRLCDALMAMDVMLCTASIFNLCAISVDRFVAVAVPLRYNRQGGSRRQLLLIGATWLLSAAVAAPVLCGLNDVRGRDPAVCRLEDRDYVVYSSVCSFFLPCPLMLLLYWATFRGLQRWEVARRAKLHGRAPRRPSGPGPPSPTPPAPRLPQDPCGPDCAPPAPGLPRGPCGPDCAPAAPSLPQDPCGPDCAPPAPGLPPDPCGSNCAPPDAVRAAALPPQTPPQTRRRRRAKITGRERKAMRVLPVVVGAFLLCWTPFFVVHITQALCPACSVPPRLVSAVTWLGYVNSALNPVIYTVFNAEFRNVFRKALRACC
# Experimental: (§1) The test substances, biological materials and experimental protocols used in the study are described in Moguilevsky N. et al. (1994) Eur. J. […] List S. J. (1981) Proc. Natl. Acad. Sci.78:2620-2624; MacKenzie R. G. et al. (1994) Eur. J. Pharmacol. 266:79-85; Van Tol et al., (1992) Nature, 358:149-152. […] Filtermat A, Walac), then washed with cold buffer using a filtration unit ‘Cell Harvester’ (Brandel, Packard or Tomtec). The bound radioactivity is measured using a scintillation liquid (Formula 989 or Microscint 0, Packard) or solid (Meltilex B/HS, Wallac), and a scintillation counter (LS 6000, Beckman; Topcount, Packard; Betaplate, Wallac). […] Each experiment was performed in duplicate (n=2). In parallel, a positive control (concentration of reference substance causing 50% inhibition of radioligand specific binding) is tested to validate the assay. For competition experiments, membranes are incubated in the buffer containing the radioligand and increasing concentrations of unlabeled test substances. Each binding assay is validated with a reference compound tested in parallel. […] where BO and BI represent the total binding in the absence and presence of the unlabelled drug (in dpm/assay) and NSB is the amount of non specific binding (in dpm/assay). Analysis of raw data and pIC50 calculation is performed by computerized non-linear curve fitting methods using a set of equations describing competitive interactions between labelled and unlabeled ligands which obey the law of mass action. IC50 represents the concentration of the test substance inhibiting 50% of the specific binding of the radioligand. It is determined in competitive binding experiments by measuring the binding of a single concentration of a radioactive ligand at equilibrium with various concentrations of the unlabeled test substance. pIC50=−log IC50
# [2] = molecular target: T2, human D3 dopaminergic receptor (Homo sapiens, UniProt P35462); assay: Radioligand binding, human D3 receptor (CHO cell culture)
# T2 construct: expressed in transfected cells; host or cells: CHO
# Experimental: as §1
# T2 sequence (P35462 whole entry): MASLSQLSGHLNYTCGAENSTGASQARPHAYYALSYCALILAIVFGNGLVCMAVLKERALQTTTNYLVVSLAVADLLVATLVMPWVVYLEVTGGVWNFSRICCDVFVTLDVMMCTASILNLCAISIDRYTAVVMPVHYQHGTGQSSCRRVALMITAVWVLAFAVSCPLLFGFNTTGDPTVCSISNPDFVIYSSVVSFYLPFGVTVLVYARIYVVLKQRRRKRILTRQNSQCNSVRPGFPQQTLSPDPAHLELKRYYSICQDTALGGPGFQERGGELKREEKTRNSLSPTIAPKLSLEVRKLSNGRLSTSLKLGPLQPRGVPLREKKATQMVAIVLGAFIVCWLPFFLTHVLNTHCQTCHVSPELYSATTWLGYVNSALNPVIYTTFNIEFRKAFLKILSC
smiles,measurement,setting,value
"CC(CN1CCN(CCOCCO)CC1)CN1c2ccccc2Sc2ccccc21 (racemic) [Dixyrazine, 2-(2-(4-(2-methyl-3-(10H-phenothiazin-10-yl)propyl)-1-piperazinyl)ethoxy)ethanol, reference compound]",inhibition at 0.1 µM,"[1]; D4.4, 0.1 μM, mean of duplicate, read-out: percent inhibition of control specific binding",24%
same,percent inhibition of control specific binding,"[1]; D4.4, 10 μM, mean of duplicate, 10 µM",104%
same,inhibition at 10 µM,"[1]; D4.4, 10 μM, mean of duplicate, read-out: percent inhibition of control specific binding",> 90%
same,IC50,"[1]; D4.4, competitive binding, read-out: Affinity pIC50 (-log IC50) (converted)",398 nM
same,inhibition at 0.1 µM,"[2]; D3, 0.1 μM, mean of duplicate, read-out: percent inhibition of control specific binding",84%
same,percent inhibition of control specific binding,"[2]; D3, 10 μM, mean of duplicate, 10 µM",100%
same,inhibition at 10 µM,"[2]; D3, 10 μM, mean of duplicate, read-out: percent inhibition of control specific binding",> 90%
same,IC50,"[2]; D3, competitive binding, read-out: Affinity pIC50 (-log IC50) (converted)",50.1 nM
